Laboratory results as given in paper PMC13224100, “Esterase-Responsive Mitochondria-Targeted Hydropersulfide Donors Mitigate Doxorubicin Cardiotoxicity While Preserving Anticancer Activity” (Angewandte Chemie (International ed. in English), 2025).
“And” between values parts separate entries of the source, which are not always exact repeats. Identical values can stand only once. Marks after values point to notes of the source that are not given here.

How the values were obtained:
[1] = system: porcine liver esterase (PLE); assay: Esterase-mediated RSSH release kinetics with HPE-IAM trapping (UPLC-MS); type: biochemical; details: precursor 25 μM, PLE 1 U mL^−1, HPE-IAM 250 μM, ammonium bicarbonate pH 7.4, DTPA, 37 °C; for half-life at 25 µM: pig, porcine liver esterase, read-out: t1/2 (min) Precursor consumption
Procedure: We then assessed esterase-mediated activation of AST-2 by incubating it with porcine liver esterase (PLE) in the presence of β-(4-hydroxyphenyl)ethyl iodoacetamide (HPE-IAM, 10 equiv), a trapping agent for RSSH.[39] We anticipated that PLE-catalyzed hydrolysis would release RSSH, which would subsequently be trapped by HPE-IAM to generate RSS-HPE-AM (Figure 1a). […] In addition, a minor amount of dialkyl trisulfide formation is observed (Figures 1b and S5), which we attribute to the reaction of the released RSSH with the precursor AST-2.
Figure 1. a) Schematic of esterase-mediated RSSH release from AST-2 in the presence of the trapping agent HPE-IAM. b) Representative UPLC-MS traces showing time-dependent conversion of AST-2 (25 μM) to RSS-HPE-AM upon treatment with porcine liver esterase (1 U mL^−1) and HPE-IAM (250 μM) in 100 mM ammonium bicarbonate buffer (pH 7.4) containing the metal chelator diethylenetriaminepentaacetic acid (DTPA) (100 μM) at 37 °C. Aliquots were quenched with formic acid and analyzed by UPLC-MS. […] Rate constants and half-lives are reported as mean ± SD (n = 3). Curves represent best fits to single-exponential functions.
Figure 2. a) Reaction scheme showing esterase-triggered RSSH release from APT-1 via a two-step activation involving deacetylation and intramolecular cyclization. b) Representative UPLC-MS traces showing the time-dependent conversion of APT-1 (25 μM) to intermediate 1 and subsequent formation of RSS-HPE-AM in the presence of PLE (1 U mL^−1) and HPE-IAM (250 μM) at 37 °C. Asterisk indicates a minor impurity in the blank control. […] Rate constants and half-lives are reported as mean ± SD (n = 3). Curves represent best fits to single exponential functions as described in the text.
B. Kinetics of RSSH Generation.
Kinetics of RSSH generation were conducted as previously described.[5] Stock solutions of RSSH […]
precursor (10 mM in DMSO), HPE-IAM (100mM in DMSO), and porcine liver esterase (PLE, 2000 U/mL in ammonium bicarbonate buffer) were freshly prepared. RSSH precursors (25 μM) were […]
then immediately incubated with HPE-IAM (250 μM) and PLE (1 U/mL, from Sigma-Aldrich, […]
E3019-20KU, ≥ 15 U/mg protein) in ammonium bicarbonate buffer (100 mM, pH 7.4) containing diethylenetriaminepentaacetic acid (DTPA, 100 μM) at 37 °C. At the indicated time points, 500 μL […]
aliquots were withdrawn, quenched with concentrated formic acid (5 μL, […]), and […]
ultracentrifuged at 12,500 rpm for 5 min. The resulting supernatants were diluted with acetonitrile […]
(200 μL supernatant + 300 μL of acetonitrile) and analyzed by UPLC–MS using a Waters Acquity […]
(MSe, 10 scans/s). Chromatographic separation was performed on a C18 reverse-phase column […]
(Waters Acquity BEH C18, 2.1 × 50 mm, 1.7 μm) at 4 °C, with a flow rate of 0.3 mL/min and the […]
following gradient (v/v; water containing 0.1% formic acid as solvent A, acetonitrile as solvent B):
B; 8.5–10 min, return to 100% A. The injection volume was 5 μL. Mass spectral data were […]
processed using MassLynx 4.1, and extracted ion chromatograms (EICs) corresponding to the […]
exact masses of the RSSH precursor, intermediate, and the trapped product (RSS–HPE-AM) […]
were integrated to quantify substrate consumption and product formation. Kinetic data were fitted […]
to a single exponential curve using Origin. All experiments were performed in triplicate (n = 3), […]
and results are reported as mean ± standard deviation (SD).
HRMS Data for Compounds Formed during RSSH Generation from AST-2 […]
Figure S2. HRMS of the peak eluting at 5.6 min corresponding to AST-2.
Esterase-mediated hydrolysis of AST-2-TPP monitored by UPLC-MS […]
Figure S11. (A) Representative UPLC-MS traces showing esterase-mediated hydrolysis of AST-2-TPP (25 […]
μM) in the presence of HPE-IAM (250 μM) in ammonium bicarbonate buffer (pH 7.4, 100 mM) containing […]
the metal chelator DTPA (100 μM) at 37 °C. […]

[2] = system: porcine liver esterase (PLE); assay: Quantification of RSSH release (RSS-HPE-AM yield) by HPLC; type: biochemical; details: pH 7.4 ammonium bicarbonate with DTPA, 37 °C; for RSSH yield (%) (formation of RSS-HPE-AM): HPE-IAM trapping; for RSSH yield (%) (formation of TPP-RSS-HPE-AM): trapping with 50 equiv of HPE-IAM
Procedure: C. Quantification of RSSH Release by HPLC Analysis […]
(PLE, 1 U/mL) in ammonium bicarbonate buffer (100 mM, pH 7.4) containing diethylenetriaminepentaacetic acid (DTPA, 100 µM) at 37 °C. At designated time points, 200 μL aliquots were withdrawn and immediately quenched by mixing with 200 μL o f i c e-cold 0.1% formic acid. Samples were analyzed by HPLC using the same method and conditions as described above. Quantification of the trapped product (RSS-HPE-AM) was carried out using a calibration curve generated in-house with authentic standards. All experiments were performed in triplicate (n = 3), and data are reported as mean ± standard deviation (SD). […]
0.1% formic acid. Samples were analyzed by Agilent HPLC with UV detection using a C18 reverse-phase column (Phenomenex Luna C18, 4.6 × 150 mm, 5 μm) at 25 °C with a flow rate of 1.0 mL/min and an injection volume of 20 μL. The gradient elution (all solvents v/v, containing 0.1% trifluoroacetic acid) was as follows: 0–10 min, linear gradient from 90% water / 10% acetonitrile to 50% water / 50% acetonitrile; 10–18 min, to 10% water / 90% acetonitrile; 18–20 min, held at 10% water / 90% acetonitrile; 20–25 min, return to 90% water / 10% acetonitrile.
Absorbance was monitored at 275 nm. […]

| SMILES | half-life at 25 µM [1] [min] | first-order rate constant k (k1) of precursor consumption / deacetylation [1] | first-order rate constant k (k2) of RSS-HPE-AM formation (RSSH release) [1] | RSSH yield (%) (formation of RSS-HPE-AM) [2] | RSSH yield (%) (formation of TPP-RSS-HPE-AM) [2] | RSSH yield (%) (formation of TPP-RSS-HPE-AM) ([2]; listed as AsT-2-TPP) |
| --- | --- | --- | --- | --- | --- | --- |
| CC(=O)NC(C(=O)N(C)CCC[P+](c1ccccc1)(c1ccccc1)c1ccccc1)C(C)(C)SSC(=O)N(C)CCOC(C)=O (centres unmarked) [APT-1-TPP] | 5.2 ± 0.2 | 0.1338 ± 0.0049 min⁻¹ and 0.134 ± 0.005 min⁻¹ | 0.0056 ± 0.0004 min⁻¹ | 95 | – | – |
| COC(=O)C(NC(C)=O)C(C)(C)SSC(=O)N(C)CCOC(C)=O (centres unmarked) [APT-1] | 17.1 ± 0.4 | 0.0406 ± 0.0010 min⁻¹ | 0.0067 ± 0.0006 min⁻¹ | 92 | – | – |
| COC(=O)SSC(C)(C)C(NC(C)=O)C(=O)N(C)CCC[P+](c1ccccc1)(c1ccccc1)c1ccccc1 (centres unmarked) [AST-2-TPP] | 20.7 ± 0.6 | 0.0335 ± 0.0010 min⁻¹ | 0.03467 ± 0.0028 min⁻¹ and 0.0347 ± 0.0028 min⁻¹ | – | 91 | 91^b) % |
| COC(=O)SSC(C)(C)C(NC(C)=O)C(=O)OC (centres unmarked) [AST-2] | 50.1 ± 1.8 | 0.0139 ± 0.0005 min⁻¹ | 0.0144 ± 0.0006 min⁻¹ | 95 | – | – |
